Read-outs that look alike come from different tables or passages of the source.
Key:
[1] = system: Basinger human fibroblasts; assay: Drying tolerance of Basinger human fibroblasts with disaccharides and polyols (trypan blue exclusion); format: cell-based; conditions: for Cell Culture Survival (%): concentration (50 mM or 10% solution), vacuum; for effectiveness in protecting the viability of the cells (in words): trypan blue exclusion
Experimental: (§1) Trypan blue exclusion was done by adding 10 μl of 0.4% trypan blue in 0.85% NaCl (Gibco BRL) to 10 μl of a single cell suspension of trypsinized cells and counting the number of trypan blue positive and negative cells. Colony assays were done by harvesting adherent cells 8-12 hours after rehydration, counting by hemacytometer, and plating either 200 or 300 cells in a 10 cm tissue culture dish. The same number of cells from a non-desiccated control were plated in parallel. Approximately 1 week later, the plates were stained with Giemsa and the colonies were counted.

Basinger cells = assay: Colony (plating efficiency) assay after desiccation and rehydration; format: cell-based, human; conditions: for ability to mediate desiccation tolerance, singly and together (in words): 3% glycerol and/or 50 mM trehalose, thermal shock, vacuum (FIG. 8); for ability of the cells to form colonies following rehydration: results not shown
Experimental: as §1
To definitively determine the effect of different desiccation protocols, an assay based on colony formation (i.e., “plating efficiency”) was used, as described in the following Examples. In this assay, rehydrated cells were replated at low density and the number of distinct colonies counted. In this way, only rehydrated cells able to undergo cell division were counted as “viable.” The pattern of viability determined by trypan blue exclusion and colony assay were the same (e.g., compare FIG. 2A with FIG. 2B), validating the use of trypan blue to measure the effect of various treatments on cell viability.
In subsequent experiments, trehalose was tested in combination with glycogen, glycerol, and sucrose. As for some anhydrobiotic organisms (e.g., Artemia cysts) glycerol accounts for about 4% of their dry weight and trehalose constitutes up to about 14% of their dry weight, these experiments were conducted to determine the effects of these compounds on cell survival. In this Figure, results are shown for Basinger cells plated in 6-well plates and exposed to 3% glycerol and/or 50 mM trehalose immediately prior to undergoing thermal shock and desiccation under vacuum. After the drying period was complete, media were added and the cells were incubated overnight. The following day, the cells were harvested and plated for viability determination using the colony assay described herein.

[2] = system: Basinger human fibroblasts; assay: Cell survival after drying with trehalose combinations and trehalose alone; format: cell-based
Experimental: In this Example, experiments to observe the effects of various combinations of sugars on cell viability are described. The results obtained for these combinations were then compared with the results obtained for trehalose alone. The combinations used were trehalose with glycerol, and trehalose with mannitol. Controls were also tested with no sugars, and trehalose alone. In these experiments Basinger human fibroblasts were used.

Adherent Basinger cells = assay: Trehalose dose response for desiccation tolerance and cytotoxicity; format: cell-based, human; conditions: 24 hours incubation
Experimental: In these experiments, the effects of trehalose concentration on desiccation tolerance were determined. Adherent Basinger cells were prepared in 6-well plates, and incubated at 37° C., with 10% CO2. When the cells reached 65-70% confluence, the cells were incubated with varying concentrations of trehalose (10 mM, 25 mM, 50 mM, 150 mM, and 500 mM) for 24 hours. The cells were exposed to thermal shock and desiccated as described above.

12F cells [3] = assay: Preliminary vacuum drying experiments; format: cell-based
12F cells [4] = assay: Desiccation tolerance of 12F cells at different storage temperatures, with trehalose (trypan blue exclusion / FACS); format: cell-based, human; conditions: for Cell Survival: trehalose 50 mM by thermal shock, dried under vacuum
Experimental: as §1
For thermal shock experiments, trehalose solution (50 mM final concentration) in DMEM and 10% FBS, was added to a pellet of 1×10^6 cells to produce a cell suspension which was then incubated on ice for 5 minutes, and then for 10 minutes in a 37° C. water bath (Daw et al., Cryobiol., 10:126-133 [1973]; and Moore et al., Cell 54:777-785 [1988]). This cycle was repeated twice. For adherent cells, the cells were plated in 6-well plates and grown to 90-95% confluence prior to thermal shock with 50 mM trehalose as described above. These methods are described in more detail in the following Examples. However, it is not intended that the present invention be limited to any particular temperatures used for thermal shock, as it is known in the art that in some cases, cells can be shocked using different temperatures.
In these experiments, the effects of temperature and drying on cell survival were investigated. In addition, the effects of the presence of trehalose on cell survival under different conditions of temperature and drying were investigated. Ten 6-well plates of 12F cells were prepared at about 90-95 confluence. The day prior to the beginning of the drying period, five plates were exposed to thermal shock to introduce trehalose into the cells (as described above). On the first day of the drying period, all of the plates were dried, and the plates were incubated in pairs (i.e., one with trehalose and one without trehalose) at −70° C., −20° C., room temperature, and 37° C., for 4 days.
In additional experiments to determine the effect of temperature on the ability of cells to withstand desiccation, 6-well plates with 12F cells were prepared at approximately 90% confluence, dried under vacuum at room temperature as described above, and stored at −70° C., −20° C., 4° C., 20° C., and 37° C. for 3 days. In these experiments, two plates were used, one included trehalose (50 mM) introduced into the cells using thermal shock, as described above. […] The cells were then rehydrated and the viability was determined by trypan blue exclusion. […] The optimum survival temperature was determined to be about 20° C. (i.e., approximately room temperature). At the other temperatures examined, there were almost no viable cells remaining, as determined by trypan blue exclusion, and none were able to grow and form colonies (results not shown). In these experiments, the presence (“Tre(+)”)/absence (“Tre(−)”) of trehalose appeared to have no impact on the optimum temperature.
No colonies were ever grown from cells maintained in the desiccated state at temperatures other than approximately 20° C.

12F cells [5] = assay: Effect of trehalose and vacuum on desiccation tolerance of 12F cells; format: cell-based, human; conditions: trehalose 50 mM, three days dried
Experimental: In this Example, experiments conducted to determine the effect of trehalose and vacuum on desiccation tolerance of 12F cells are described. The 12F cells were prepared at 95% confluence in five 6-well plates. On plates 1 (V+T+) and 3 (V−T+), trehalose (50 mM final concentration) was introduced by thermal shock, as described in above. Medium was then removed from each of the wells, and Plates 1 (V+T+) and 2 (V+T−) were vacuum sealed using the Magic Vac vacuum packaging system (Flaem Nuova) and maintained at room temperature. Plates 3 and 4 were sealed in bags without vacuum and also maintained at room temperature. Three days later, medium (DMEM) was added to the plates, and the plates incubated at 37° C. with 10% CO2 overnight. The next day, the cells were harvested and stained with trypan blue in order to determine the dead/live ratio.
In some experiments, the samples were divided. One portion of the sample was used in the analysis of live/dead cells using trypan blue, as described above, and the second portion was plated into fresh culture media at 25× dilution and incubated until cells grew in the culture. This allowed counting of the live cells based on their “plating efficiency.” This was considered to be the best way to estimate the ratio of dead to alive cells.

[6] = system: Basinger fibroblast cells; assay: Cytotoxicity of carbohydrates and polyols (maximum usable concentration)
Experimental: To determine whether any of these molecules have properties that would allow them to substitute for trehalose in promoting desiccation tolerance in mammalian cells, a number of carbohydrates and polyols were systematically studied. Each was tested initially to determine the maximum concentration at which they could be used without causing cytotoxicity. The ability of the different molecules to mediate desiccation tolerance was then tested at the optimal concentration for each.
Thus, in these experiments, Basinger fibroblast cells were tested in long term desiccation experiments (i.e., longer than 5 days of drying). In these experiments, Basinger cells at approximately 75% confluence were exposed to a polyol or disaccharide for 12 hours prior to removal of medium and desiccation under vacuum. Thermal shock was used to introduce the disaccharides or polyols into the cells to produce equal concentrations final of 50 mM in the cultures (with equal numbers of cells). […] FIG. 7 also provides a graphic representation of the results for various test disaccharides and polyols.

12F and Basinger cells = conditions: human

OC[C@@H](O)[C@@H](O)[C@H](O)[C@H](O)CO [Mannitol]
Cell Culture Survival (%) ([1]; Day 3 of drying): 32%
Cell Culture Survival (%) ([1]; Day 4 of drying): 11%
Cell Culture Survival (%) ([1]; Day 5 of drying): 3.1%
Cell Culture Survival (%) ([1]; Day 6 of drying): 5.4%

OC[C@H]1O[C@H](O[C@H]2O[C@H](CO)[C@@H](O)[C@H](O)[C@H]2O)[C@H](O)[C@@H](O)[C@@H]1O [Trehalose, D (+) trehalose dihydrate]
ability to mediate desiccation tolerance, singly and together (in words) (Basinger cells): roughly similar
ability of the cells to form colonies following rehydration (Basinger cells): able to maintain cellular viability
Cell Culture Survival (%) ([1]; Day 3 of drying): 45%
Cell Culture Survival (%) ([1]; Day 4 of drying): 38%
Cell Culture Survival (%) ([1]; Day 5 of drying): 12%
Cell Culture Survival (%) ([1]; Day 6 of drying): 10.5%
Cell Survival ([2]; Day 3): 7.5
Cell Survival ([2]; Day 4): 0.8
Cell Survival ([2]; Day 5): 2.2
Cell Survival ([2]; Day 6): 1.5
trehalose concentration resulting in obvious cytotoxicity (Adherent Basinger cells): above 150 mM
optimal concentration of trehalose for desiccation tolerance (Adherent Basinger cells; thermal shock, desiccation, 10-500 mM tested): 50 mM
trehalose concentration at which cytotoxic effects were observed (12F cells [3]): more than 50 mM
cells appearing to be "live" (FACS) (12F cells [4]; dried in the presence of trehalose, incubated at −70° C., no growth upon plating): about 4%
survival rate (in words) (12F cells [4]; incubated at room temperature in the presence of trehalose): very high
Cell Survival (12F cells [4]; storage at RT (room temperature)): 34%
Cell Survival (12F cells [4]; storage temperature 4° C.): 2.8%
Cell Survival (12F cells [4]; storage temperature 37° C.): 0.4%
Cell Survival (12F cells [4]; storage temperature −20° C.): 0.7%
Cell Survival (12F cells [4]; storage temperature −70° C.): 4%
survival rate compared to the controls (in words) (12F cells [5]): much higher survival rate

OC[C@@H](O)[C@@H](O)[C@H](O)[C@@H](O)CO [Sorbitol]
Cell Culture Survival (%) ([1]; Day 3 of drying): 29%
Cell Culture Survival (%) ([1]; Day 4 of drying): 8%
Cell Culture Survival (%) ([1]; Day 5 of drying): 3.1%
Cell Culture Survival (%) ([1]; Day 6 of drying): 0.8%

Glycogen
Cell Culture Survival (%) ([1]; Day 3 of drying): 40.6%
Cell Culture Survival (%) ([1]; Day 4 of drying): 21.5%
Cell Culture Survival (%) ([1]; Day 5 of drying): 14%
Cell Culture Survival (%) ([1]; Day 6 of drying): 9.5%
effectiveness in protecting the viability of the cells (in words) [1]: almost equally as effective

OC[C@H]1O[C@H](O[C@H]2[C@H](O)[C@@H](O)C(O)O[C@@H]2CO)[C@H](O)[C@@H](O)[C@@H]1O (mixture of isomers) [Maltose]
Cell Culture Survival (%) ([1]; Day 3 of drying): 31%
Cell Culture Survival (%) ([1]; Day 4 of drying): 17%
Cell Culture Survival (%) ([1]; Day 5 of drying): 4.2%
Cell Culture Survival (%) ([1]; Day 6 of drying): 2.5%

OCC(O)CO [glycerol]
ability to mediate desiccation tolerance, singly and together (in words) (Basinger cells): roughly similar
ability of the cells to form colonies following rehydration (Basinger cells): able to maintain cellular viability
Cell Culture Survival (%) ([1]; Day 3 of drying): 2.6%
Cell Culture Survival (%) ([1]; Day 4 of drying): 4.8%
Cell Culture Survival (%) ([1]; Day 5 of drying): 0.7%
Cell Culture Survival (%) ([1]; Day 6 of drying): 3.1%
optimum concentration [6]: 3%
concentration with long-term cytotoxic effect ([6]; human): above 4%
concentration found to be toxic (very low survival, no growth upon passage) ([6]; human, 12 h): ≥ 5%
concentration toxic for cells (12F and Basinger cells): above 5%

Dextran
Cell Culture Survival (%) ([1]; Day 3 of drying): 0.9%
Cell Culture Survival (%) ([1]; Day 4 of drying): 2.4%
Cell Culture Survival (%) ([1]; Day 5 of drying): 1.7%
Cell Culture Survival (%) ([1]; Day 6 of drying): 0.8%
effectiveness in protecting the viability of the cells (in words) [1]: completely ineffective
concentration found to be toxic (very low survival, no growth upon passage) [6]: ≥ 5%

OC[C@H]1O[C@@](CO)(O[C@H]2O[C@H](CO)[C@@H](O)[C@H](O)[C@H]2O)[C@@H](O)[C@@H]1O [Sucrose]
Cell Culture Survival (%) ([1]; Day 3 of drying): 39%
Cell Culture Survival (%) ([1]; Day 4 of drying): 28%
Cell Culture Survival (%) ([1]; Day 5 of drying): 9.1%
Cell Culture Survival (%) ([1]; Day 6 of drying): 7.2%
effectiveness in protecting the viability of the cells (in words) [1]: as effective as trehalose

From patent US6528309B2, “Vacuum-mediated desiccation protection of cells” (The Regents of the University of California, priority 2001, dated 2003)
